According to ChEMBL document CHEMBL2331418, “Synthesis of tartaric acid analogues of FR258900 and their evaluation as glycogen phosphorylase inhibitors” (Bioorg Med Chem Lett, 2013):

Key:
[1] = Competitive inhibition of rabbit muscle glycogen phosphorylase b using constant concentration of glucose-1-phosphate, glycogen and varying concentration of AMP as substrate; assay type: tissue-based, Oryctolagus cuniculus, Muscle tissue
[2] = target: T1, Glycogen phosphorylase, muscle form (Oryctolagus cuniculus, UniProt P00489); assay: Inhibition of rabbit muscle glycogen phosphorylase
T1 sequence (P00489 whole entry): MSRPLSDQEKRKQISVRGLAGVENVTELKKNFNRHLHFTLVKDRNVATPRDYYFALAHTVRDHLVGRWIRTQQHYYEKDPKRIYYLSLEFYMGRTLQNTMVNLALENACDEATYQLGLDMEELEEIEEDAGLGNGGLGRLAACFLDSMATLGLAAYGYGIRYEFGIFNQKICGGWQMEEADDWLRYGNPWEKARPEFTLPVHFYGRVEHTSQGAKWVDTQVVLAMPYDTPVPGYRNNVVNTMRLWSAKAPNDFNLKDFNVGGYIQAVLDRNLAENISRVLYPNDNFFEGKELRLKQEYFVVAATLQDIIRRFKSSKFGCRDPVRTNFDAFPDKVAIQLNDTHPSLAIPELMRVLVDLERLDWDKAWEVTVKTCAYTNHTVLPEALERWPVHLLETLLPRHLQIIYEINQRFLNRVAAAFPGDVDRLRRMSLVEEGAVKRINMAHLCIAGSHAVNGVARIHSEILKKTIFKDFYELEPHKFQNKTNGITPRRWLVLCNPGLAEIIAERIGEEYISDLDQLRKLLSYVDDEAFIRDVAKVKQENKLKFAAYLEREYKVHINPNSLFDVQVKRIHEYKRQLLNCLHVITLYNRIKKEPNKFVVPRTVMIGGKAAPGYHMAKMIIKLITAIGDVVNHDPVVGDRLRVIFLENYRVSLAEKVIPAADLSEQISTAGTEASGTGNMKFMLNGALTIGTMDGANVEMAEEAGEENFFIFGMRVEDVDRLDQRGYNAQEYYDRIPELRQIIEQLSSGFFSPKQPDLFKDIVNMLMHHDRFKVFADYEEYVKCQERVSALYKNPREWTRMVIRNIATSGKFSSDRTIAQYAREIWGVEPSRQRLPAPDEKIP

[3] = Non-competitive inhibition of rabbit muscle glycogen phosphorylase b using constant concentration of AMP, glycogen and varying concentration of glucose-1-phosphate as substrate; assay type: tissue-based, Oryctolagus cuniculus, Muscle tissue
[4] = target: T2, Glycogen phosphorylase, liver form (Homo sapiens, UniProt P06737); assay: Inhibition of human liver glycogen phosphorylase
T2 sequence (P06737 whole entry): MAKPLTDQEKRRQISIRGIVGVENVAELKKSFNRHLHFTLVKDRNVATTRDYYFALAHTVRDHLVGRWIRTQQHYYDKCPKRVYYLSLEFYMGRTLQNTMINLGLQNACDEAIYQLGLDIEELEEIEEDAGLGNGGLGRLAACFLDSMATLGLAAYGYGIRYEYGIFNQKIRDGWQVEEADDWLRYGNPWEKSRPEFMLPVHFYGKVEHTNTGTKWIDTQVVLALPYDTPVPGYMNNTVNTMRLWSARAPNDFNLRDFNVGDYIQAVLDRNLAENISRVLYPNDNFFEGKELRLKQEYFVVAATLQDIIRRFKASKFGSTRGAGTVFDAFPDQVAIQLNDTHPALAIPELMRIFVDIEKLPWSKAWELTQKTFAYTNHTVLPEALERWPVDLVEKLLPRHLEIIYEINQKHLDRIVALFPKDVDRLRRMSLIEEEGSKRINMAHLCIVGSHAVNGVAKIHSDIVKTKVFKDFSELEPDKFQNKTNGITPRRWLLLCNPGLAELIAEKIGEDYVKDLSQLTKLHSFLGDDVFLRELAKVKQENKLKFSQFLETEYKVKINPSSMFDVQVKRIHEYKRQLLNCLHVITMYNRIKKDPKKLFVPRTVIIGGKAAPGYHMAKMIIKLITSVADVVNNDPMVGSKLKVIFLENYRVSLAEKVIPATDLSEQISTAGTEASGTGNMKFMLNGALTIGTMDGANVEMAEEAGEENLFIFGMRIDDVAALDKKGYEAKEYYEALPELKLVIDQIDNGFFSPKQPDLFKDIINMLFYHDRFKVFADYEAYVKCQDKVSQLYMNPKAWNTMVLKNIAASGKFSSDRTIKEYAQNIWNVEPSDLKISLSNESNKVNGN

Row | Ki [1] | Ki [2] | Ki [3] | IC50 [4] | Compound
1 | 0.2 µM | 0.46 µM | 5.47 µM | 2.5 µM | O=C(O)C[C@H](OC(=O)/C=C/c1ccc(O)cc1)[C@@H](OC(=O)/C=C/c1ccc(O)cc1)C(=O)O
2 | 11.3 µM |  | 300 µM |  | O=C(/C=C/c1ccc(O)cc1)O[C@@H](C(=O)O)[C@@H](OC(=O)/C=C/c1ccc(O)cc1)C(=O)O
3 | 5.68 µM |  | 71.4 µM |  | O=C(/C=C/c1ccc(O)cc1)O[C@H](C(=O)O)[C@@H](OC(=O)/C=C/c1ccc(O)cc1)C(=O)O
4 | 26.4 µM |  | 109 µM |  | O=C(/C=C/c1ccc(O)cc1)O[C@H](C(=O)O)[C@H](OC(=O)/C=C/c1ccc(O)cc1)C(=O)O
